Test results published in patent publication US4863951A, “Pharmacologically active amino-5,6,7,8-tetrahydronaphtho [2,3-B] furan compounds” (ADIR Et Cie, priority 1987, dated 1989).
Where a name gives a salt, the structure may show the parent alone. Read-outs that look alike come from different tables or passages of the source.

What was measured:
[1] = system: apomorphine-induced rearing-up; test: Antagonism of apomorphine-induced rearing-up behavior in mice; assay type: in vivo; details: Mus musculus, apomorphine 0.75 mg.kg^-1 s.c.
In short: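 Mice given compound i.p. (doses from 2.5 mg.kg^-1) or orally at 20 mg.kg^-1, then challenged with apomorphine 0.75 mg.kg^-1 s.c.; antagonism of rearing-up behavior scored per Protais et al., significance at p<0.05.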

[2] = system: apomorphine-induced stereotypy; test: Antagonism of apomorphine-induced stereotypy in rats; assay type: in vivo; details: Rattus norvegicus, 0.5 h, apomorphine 1.5 mg.kg^-1 i.p., 30 minutes
In short: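 Rats received apomorphine or amphetamine i.p. at 1.5 mg.kg^-1, and stereotyped movements were scored on the Quinton–Halliwell scale. Values are % inhibition (−) or potentiation (+) of stereotypy score, measured at 30 minutes for apomorphine and 3 hours for amphetamine.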

[3] = system: amphetamine-induced stereotypy; test: Antagonism of amphetamine-induced stereotypy in rats; assay type: in vivo; details: 3 hours
Procedure: The inhibitory activity of the compounds of the invention with respect to apomorphine- or amphetamine-induced stereotypy in rats was assessed using the scale of scoring of stereotyped movements described by Quinton R. M. and Halliwell G. in Nature (1963), 200, p. 178-179.
Apomorphine or amphetamine was administered to the animals intraperitoneally at a dose of 1.5 mg.kg^-1. The percentage inhibition (-) or potentiation (+) of the stereotypy score (% ISS) shown in Tables IV and V for apomorphine corresponds to a measurement time of 30 minutes. In contrast, the percentage inhibition of the stereotypy score shown in Table VI for amphetamine corresponds to a measurement time of 3 hours.
(s=significant difference, p<0.05).

[4] = system: apomorphine-induced hypothermia; test: Antagonism with respect to apomorphine-induced hypothermia in mice; assay type: in vivo; details: Mus musculus, 2 h, apomorphine 1 mg.kg^-1 s.c., after 2 hours
Procedure: Testing for an antagonism with respect to apomorphine-induced hypothermia in mice was performed according to the method described by CHERMAT R. and PONCELET M. in J. Pharmac. (1983), 14, No. 1, p. 93-97. The dose of apomorphine administered subcutaneously was 1 mg.kg^-1. Tables VII and VIII show the percentage antagonism of the hypothermia observed after 2 hours.

[5] = system: isolation-induced aggression; test: Antiaggressive effects: isolation-induced aggression in mice; assay type: in vivo; details: isolated mice, i.p.
In short: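 Two paradigms: inhibition of aggressive behaviour in previously isolated mice, and in isolated, bulbectomized rats. Significance set at p<0.05.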

[6] = system: aggression of isolated, bulbectomized rats; test: Antiaggressive effects: aggression of isolated, bulbectomized rats; assay type: in vivo; details: i.p.
Source text: The antiaggressive effects of the compounds of the invention were investigated by two methods, one of them testing for an inhibition of aggressive behavior in peviously isolated mice (Yen C. Y., Stanger A. L., and Millman N, Arch. Int. Pharmacodyn. Therap. (1959), 123, p. 179-185), and the other in isolated and bulbectomized rats (Garattini S. and Sigg E. B. "Aggressive Behaviour" p. 47-55 Ed. Excerpta Medica Found., Amsterdam, 1969).
(Tables IX and X, s=significant, p<0.05).

[7] = system: reserpine-induced hypothermia; test: Antagonism of reserpine-induced hypothermia; assay type: in vivo, Swiss CD male mice; details: mice, reserpine 2.5 mg.kg^-1 i.p.
In short: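 Male Swiss CD mice (27-28 g, n=10/group) given reserpine 2.5 mg.kg^-1 i.p., then test compound i.p. 3 h later. Rectal temperature taken 1 and 2 h after compound dosing and compared with each animal's temperature just before compound administration.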

[8] = system: ponto-geniculo-occipital (P.G.O.) waves induced by Ro4-1284; test: Antagonism of the ponto-geniculo-occipital (P.G.O.) waves induced by Ro4-1284; assay type: in vivo; details: Felis catus, iv, cats, i.v., read-out: ED50 (effective dose inhibiting by 50% the number of P.G.O. waves)
Procedure: The antidepressant effects of the compounds of the invention were investigated by assessing the antagonism of reserpine-induced hypothermia and the antagonism of the ponto-geniculo-occipital waves induced by the compound Ro4-1284 in cats.
This study was performed according to the method of Ruch-Monachon M. A., Jalfre M. and Haefely W. described in Arch. Int. Pharm. Therap., (1976), 219, No. 2, p. 251-346, and it enabled the effective dose (i.v) inhibiting by 50% (ED50) the number of P.G.O waves to be assessed.

[9] = system: interoceptive stimulus of apomorphine; test: Drug discrimination in rats (generalization with apomorphine); assay type: in vivo; details: 30 minutes before test
Procedure: Rats were trained to discriminate between the effect of the interoceptive stimulus of apomorphine (0.2 mg.kg^-1 i.p.) and that of physiological saline, according to a principle described by Colpaert F. in "Drug discrimination application in C.N.S. Pharmacology" Ed. Elsevier Biomedical 1982, Amsterdam. […]
Under the experimental conditions employed, the behavior shown by the animals coincides with that noted in the case of administration of apomorphine.

NC1CCc2cc3c(cc2C1)OCC3 (racemic) [Example 2, di-7-Amino-2,3,5,6,7,8-hexahydronaphtho[2,3-b]furan hydrochloride]
change in vivo at 5 mg/kg ([1]; ip, read-out: % inhibition of rearing-up, mice, i.p. dose 5 mg.kg^-1): -56%
change in vivo at 10 mg/kg ([1]; ip, read-out: % inhibition of rearing-up, mice, i.p. dose 10 mg.kg^-1): -58%
change in vivo at 20 mg/kg ([1]; ip, read-out: % inhibition of rearing-up, mice, i.p. dose 20 mg.kg^-1): -91%
change in vivo at 40 mg/kg ([1]; ip, read-out: % inhibition of rearing-up, mice, i.p. dose 40 mg.kg^-1): -100%
change in vivo at 10 mg/kg ([1]; po, read-out: % inhibition of rearing-up, mice, p.o. dose 10 mg.kg^-1): -77%
change in vivo at 20 mg/kg ([1]; po, read-out: % inhibition of rearing-up, mice, p.o. dose 20 mg.kg^-1): -100%
change in vivo at 5 mg/kg ([2]; ip, read-out: % ISS (inhibition (-) or potentiation (+) of the stereotypy score), rats, i.p. dose 5 mg.kg^-1): -16%
change in vivo at 10 mg/kg ([2]; ip, read-out: % ISS (inhibition (-) or potentiation (+) of the stereotypy score), rats, i.p. dose 10 mg.kg^-1): -62%
change in vivo at 20 mg/kg ([2]; ip, read-out: % ISS (inhibition (-) or potentiation (+) of the stereotypy score), rats, i.p. dose 20 mg.kg^-1): -48%
change in vivo at 10 mg/kg ([2]; po, read-out: % ISS (inhibition (-) or potentiation (+) of the stereotypy score), rats, p.o. dose 10 mg.kg^-1): -55%
change in vivo at 20 mg/kg ([2]; po, read-out: % ISS (inhibition (-) or potentiation (+) of the stereotypy score), rats, p.o. dose 20 mg.kg^-1): -55%
% ISS (inhibition (-) or potentiation (+) of the stereotypy score) ([3]; i.p. dose 5 mg.kg^-1, amphetamine 1.5 mg.kg^-1 i.p.): +32%
% ISS (inhibition (-) or potentiation (+) of the stereotypy score) ([3]; i.p. dose 10 mg.kg^-1, amphetamine 1.5 mg.kg^-1 i.p.): +39%
change in vivo at 1 mg/kg ([4]; ip, read-out: % antagonism of hypothermia, mice, i.p. dose 1): -11%
change in vivo at 5 mg/kg ([4]; ip, read-out: % antagonism of hypothermia, mice, i.p. dose 5): -57%
change in vivo at 10 mg/kg ([4]; ip, read-out: % antagonism of hypothermia, mice, i.p. dose 10): -54%
change in vivo at 20 mg/kg ([4]; ip, read-out: % antagonism of hypothermia, mice, i.p. dose 20): -80%
change in vivo at 2.5 mg/kg ([4]; po, read-out: % antagonism of hypothermia, mice, p.o. dose 2.5): -35%
change in vivo at 5 mg/kg ([4]; po, read-out: % antagonism of hypothermia, mice, p.o. dose 5): -59%
change in vivo at 10 mg/kg ([4]; po, read-out: % antagonism of hypothermia, mice, p.o. dose 10): -70%
change in vivo at 20 mg/kg ([4]; po, read-out: % antagonism of hypothermia, mice, p.o. dose 20): -86%
% of pairs of mice showing no sign of fighting ([5]; 2.5 mg.kg^-1): 40%
% of pairs of mice showing no sign of fighting ([5]; 5 mg.kg^-1): 70%
% of pairs of mice showing no sign of fighting ([5]; 10 mg.kg^-1): 100%
% of pairs of mice showing no sign of fighting ([5]; 20 mg.kg^-1): 100%
% of rats rendered non-aggressive ([6]; 1.25 mg.kg^-1): 17%
% of rats rendered non-aggressive ([6]; 2.5 mg.kg^-1): 50%
% of rats rendered non-aggressive ([6]; 5 mg.kg^-1): 73%
% of rats rendered non-aggressive ([6]; 10 mg.kg^-1): 17%
% inhibition of hypothermia ([7]; 2.5 mg.kg^-1 i.p.): -62%
% inhibition of hypothermia ([7]; 5 mg.kg^-1 i.p.): -27%
% inhibition of hypothermia ([7]; 10 mg.kg^-1 i.p.): -32%
% inhibition of hypothermia ([7]; 20 mg.kg^-1 i.p.): -47%
ED50 [8]: 0.146 mg/kg
% of animals which generalize ([9]; 1.0 mg.kg^-1 i.p.): 20%
Number of animals showing the effect of generalization with apomorphine ([9]; 1.0 mg.kg^-1 i.p.): 2/10
% of animals which generalize ([9]; 2.5 mg.kg^-1 i.p.): 77%
Number of animals showing the effect of generalization with apomorphine ([9]; 2.5 mg.kg^-1 i.p.): 7/9
% of animals which generalize ([9]; 5.0 mg.kg^-1 i.p.): 50%
Number of animals showing the effect of generalization with apomorphine ([9]; 5.0 mg.kg^-1 i.p.): 2/4
